In article PMC3877544 (Cell Death & Disease, 2013):

Biological target: voltage-dependent anion channel 1 (VDAC1) (Rattus norvegicus, UniProt Q9Z2L0)
Experiment: microscale thermophoresis with fluorescently labeled purified VDAC1
Type: binding

Sequence of voltage-dependent anion channel 1 (VDAC1) (Q9Z2L0 2-283): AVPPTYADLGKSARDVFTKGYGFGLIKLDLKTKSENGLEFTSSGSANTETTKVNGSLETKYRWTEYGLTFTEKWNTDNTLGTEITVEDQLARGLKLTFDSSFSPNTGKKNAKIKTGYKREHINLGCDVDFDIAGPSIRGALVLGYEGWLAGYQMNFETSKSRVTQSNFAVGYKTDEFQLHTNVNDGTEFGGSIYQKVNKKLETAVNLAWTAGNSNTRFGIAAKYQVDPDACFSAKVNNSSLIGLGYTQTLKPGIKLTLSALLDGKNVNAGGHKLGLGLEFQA

Question: With C=C(C)[C@@H]1CCC(C)=C[C@H]1c1c(O)cc(CCCCC)cc1O [CBD, cannabidiol] as the compound, how does the Kd read?
Answer: 11.2 ± 6 µM
